{"source": "patent US8748369B2", "about": "“Use of targeted nitroxide agents in bone healing” (University of Pittsburgh-Of the Commonwealth System of …, priority 2009, dated 2014)", "key": {"[1]": {"system": "mouse embryonic cells, mitochondria", "assay": "EPR-based analysis of integration and distribution of nitroxides (Example 9)", "format": "cell-based", "settings": "10 μM nitroxides for 10 min", "experimental": "To compare the integration efficiency, mouse embryonic cells (1×10^7/mL) were incubated with 10 μM nitroxides for 10 min. ESR spectra of nitroxide radicals in the incubation medium, cell suspension or mitochondrial suspension were recorded after mixing with acetonitrile (1:1 v/v) after 5-min incubation with 2 mM K3Fe(CN)6 using JEOL-RE1X EPR spectrometer under the following conditions: 3350 G center field; 25 G scan range; 0.79 G field modulation, 20 mW microwave power; 0.1 s time constant; 4 min scan time. Integration efficiency was calculated as (Einitial−Emedium)/Einitial×100%. Mitochondria were isolated using a mitochondria isolation kit (Pierce, Rockford, Ill.) according to the manufacturer's instruction. Amounts of nitroxide radicals integrated into mitochondria were normalized to the content of cytochrome c oxidase subunit IV."}, "[2]": {"system": "32D cl 3 murine hematopoietic cells", "assay": "Irradiation survival curves of 32D cl 3 cells", "format": "cell-based, mouse", "settings": "cells incubated in compound", "experimental": "FIG. 16 illustrates the effect of GS conjugated nitroxide, XJB-5-125, on gamma-irradiation dose survival curves of 32D cl 3 murine hematopoietic cells.\nIrradiation survival curves were performed on cells from the 32D cl 3 mouse hematopoietic progenitor cell line, incubated in 10 μM JP4-039 for 1 hour before irradiation, or plated in methycellulose containing 10 μM JP4-030 after irradiation. Cells were irradiated from 0 to 8 Gy, plated in 0.8% methycellulose containing media, and incubated for 7 days at 37° C. Colonies of greater than 50 cells were counted and data analyzed by linear quadratic and single-hit, multi-target models."}, "Solubility in water": {"assay": "Solubility in water", "format": "physicochemical", "description": "All compositions are sterile filtered (e.g.) using a 0.2 micron filter (non sterile). • A. 0.1% DMSO 99.9% and RMPI 1640. Comments: with the low water solubility of JP4-039, DMSO is used in vitro experiments since it is a universal solvent which has been used in radiation biology experiments without any toxic effects. • B. 10% CrEL(Cremophor EL), 10% ethanol and 80% DI water. […] This formula dissolves the JP4-039. • C. Suspension of JP4-039 in F14 emulsion: Comments: F14 is a mixture of sesame oil, egg-phosphatidyl choline, Tween 80, and Span85 at ratios of 1:0.5:0.25:0.25 w/w, respectively. […] Comments: Sesame Seed Oil (100 mg/ml), Soy Phosphatidyl […] (50 mg/ml), JP4-039 (2 mg/ml), and Phosphate Buffered Saline. • Low dose (JP4-039): 5 mg/kg, 0.5 mg/ml. • Medium dose (JP4-039): 10 mg.kg, 1.0 mg/ml. • High dose (JP4-039): 20 mg/kg, 2.0 mg/ml. • Placebo/Vehicle (JP4-039): 0 mg/kg, 0 ing/ml • Exemplary dose (mouse): 200 μl of volume • E. JP4-039 dissolved in a solution of 45% 2-hydroxypropyl-β-cyclodextrin and 55% water. Comments: Cyclodextrins have a hydrophobic interior which compounds such as JP4-039 can complex in a rapid and reversible reaction. P-cyclodextrins have a cavity with an inner diameter of approximately 7.5 Å which is well suited for JP4-039."}, "NOD/SCID mice": {"system": "NOD/SCID mice", "assay": "Proposed: human marrow stromal cell seeding into irradiated limbs of NOD/SCID mice", "format": "in vivo, mouse", "settings": "MnSOD-PL prior to cell infusion; JP4-039 daily after cell transplantation", "description": "The following can be used to select and optimize the best GS-nitroxide JP4-039 (radiation damage mitigator drug) that can enhance human bone marrow stromal cell and fresh human stromal cell line seeding efficiency into irradiated limbs of NOD/SCID mice. MnSOD-overexpressing cells are a positive control.\nA. Experiments with KM101-MnSOD/ds-red (control KM101-ds-red) clonal cell lines. Groups of 12 NOD/SCID mice receive 300 cGy total body irradiation (low dose leg) and a 1000 cGy boost to the left hind leg (high dose leg), then 24 hours later intravenous injection of 1×10^5 or 1×10^6 cells of each cell line (groups 1 and 2). Group 3 is mice that receive MnSOD-PL intravenously 24 hours prior to irradiation and then injection of KM101-MnSOD/ds-red. […] This experiment may be conducted essentially as described above (A), with all groups, but with a sub-group receiving JP4-039 (24 hours) after radiation (same day as cell lines are injected, or a sub-group receiving intraperitoneal JP4-039 (daily or weekly after cell line transplantation). Cells may be explanted from the high dose and low dose irradiated femurs at days 7, 14, 21, and cultured in vitro for human stromal colony forming progenitor cells (CFU-F). The percent and total number of human cells entering the high dose and low dose irradiated limbs can be quantitated by cell sorting for ds-red. […]"}}, "note": "Where a SMILES comes first, the peptide text is derived from it. [ ]: non-standard residue; d: D form. The star is where a group is joined. NH(TEMPO-4-yl) = CC1(C)CC(N*)CC(C)(C)N1[O]; Orn = NCCC[C@H](N)C(=O)O; Cbz = O=C(OCc1ccccc1)*; Boc = CC(C)(C)OC(=O)*", "data": [{"smiles": "CC(C)C[C@H](NC(=O)OC(C)(C)C)C(=O)N[C@H](Cc1ccccc1)C(=O)N1CCC[C@H]1C(=O)N[C@H](C(=O)N[C@@H](CCCNC(=O)OCc1ccccc1)C(=O)NC1CC(C)(C)N([O])C(C)(C)C1)C(C)C", "note": "[XJB-5-125] (Boc-L[dF]PV[Orn](Cbz)-{NH(TEMPO-4-yl)})", "values": [{"measurement": "integration into cells and mitochondria compared with non-conjugated 4-amino-TEMPO", "setting": "[1]", "value": "much more efficiently"}, {"measurement": "Do of gamma-irradiation survival curve", "setting": "[2]", "value": 1.138, "unit": "Gy"}, {"measurement": "n (shoulder on the survival curve)", "setting": "[2]", "value": 18.24}]}, {"smiles": "CC(C)C[C@@H](/C=C/CC(=O)NC1CC(C)(C)N([O])C(C)(C)C1)NC(=O)OC(C)(C)C", "note": "[JP4-039, (S,E)-5-(tert-Butoxycarbonylamino)-7-methyloct-3-enoic acid-TEMPO]", "values": [{"measurement": "solubility in water", "setting": "Solubility in water", "value": "low solubility in water"}, {"measurement": "engraftment of KM101 stromal cell lines", "setting": "NOD/SCID mice", "value": "facilitate improved stability of engraftment"}]}]}
